Experimental data published in patent US20110045086A1, “Steroid Nebuliser Formulation” (BREATH LTD, priority 2008, published 2011).

Assays:
Type in all cases: physicochemical
[1] = dry Sympatec PSD analysis (particle size distribution); conditions: for Particle Size, cumulative distribution Q3 X10 / Particle Size, cumulative distribution Q3 X50 / Particle Size, cumulative distribution Q3 X90: dry Sympatec PSD, after isolation / pre-storage sample
Excerpt: Particle size or particle diameter as used herein can be suitably determined by laser diffraction based methods, for example as described in ISO Standard 13320-1. Laser diffraction particle sizing apparatus such as the Malvern Mastersizer 2000™ can be used.

[2] = storage at 20% relative humidity for 48 hours (DVS, DSC, PSD, SEM); conditions: for Particle Size, cumulative distribution Q3 X10 / Particle Size, cumulative distribution Q3 X50 / Particle Size, cumulative distribution Q3 X90: dry Sympatec PSD, post-storage sample; for DSC trace of the stored sample / variation of particle size after storage (PSD): post-storage; for weight change during storage (DVS mass plot): storage at 20% RH for 48 hours
Description: In order to evaluate the effect of humidity on prolonged storage processed BDP hydrate was subjected to 20% relative humidity (RH) for 48 hours.
The sample recovered after storage was analysed by DSC, TGA, PSD and SEM.
In order to evaluate the effect of humidity on prolonged storage anhydrous BDP was subjected to 20% relative humidity (RH) for 48 hours. The pre-storage sample was characterized by TGA, DSC, PSD and SEM analysis.
The sample recovered after storage was analyzed by DSC, PSD and SEM.

[3] = microscope imaging / SEM of particles; conditions: for largest particles or clusters observed (microscope imaging / SEM): after supercritical CO2 isolation; for particle size in suspension prior to isolation (microscope imaging): partially agglomerated particles, before supercritical CO2 isolation
[4] = after supercritical CO2 isolation

Structure (SMILES)	Particle Size, cumulative distribution Q3 X10 [1] [μ]	Particle Size, cumulative distribution Q3 X50 [1] [μ]	Particle Size, cumulative distribution Q3 X90 [1] [μ]	stability on prolonged storage ([2]; 20% RH for 48 hours, compared with anhydrous BDP)	Particle Size, cumulative distribution Q3 X10 ([2]; 20% RH for 48 hours) [μ]	Particle Size, cumulative distribution Q3 X50 ([2]; 20% RH for 48 hours) [μ]	Particle Size, cumulative distribution Q3 X90 ([2]; 20% RH for 48 hours) [μ]	DSC trace of the stored sample ([2]; 20% RH for 48 hours)	variation of particle size after storage (PSD) ([2]; 20% RH for 48 hours)	time to steady state in DVS mass plot ([2]; storage at 20% RH)	weight change during storage (DVS mass plot) [2]	largest particles by dry Sympatec PSD analysis ([1]; after supercritical CO2 isolation, bimodal distribution)	largest particles or clusters observed (microscope imaging / SEM) [3]	particle size in suspension prior to isolation (microscope imaging) [3]	size of larger clusters or agglomerates by dry Sympatec PSD analysis [1, 4] [μm]	size of most particles by dry Sympatec PSD analysis [1, 4] [μm]
CCC(=O)OCC(=O)[C@@]1(OC(=O)CC)[C@@H](C)C[C@H]2[C@@H]3CCC4=CC(=O)C=C[C@]4(C)[C@@]3(Cl)[C@@H](O)C[C@@]21C.O [BDP hydrate]	0.51	1.35	3.17	higher stability on prolonged storage than anhydrous BDP	0.51	1.37	2.95	no variation in the thermal behavior	no significant variation of particle size	about 1500 minutes	considerable weight loss due to partial dehydration					
CCC(=O)OCC(=O)[C@@]1(OC(=O)CC)[C@@H](C)C[C@H]2[C@@H]3CCC4=CC(=O)C=C[C@]4(C)[C@@]3(Cl)[C@@H](O)C[C@@]21C [Comparative Example 1]	1.26	12.58	61.27									up to 150 μm	up to 100 μm	up to 5 μm		
CCC(=O)OCC(=O)[C@@]1(OC(=O)CC)[C@@H](C)C[C@H]2[C@@H]3CCC4=CC(=O)C=C[C@]4(C)[C@@]3(Cl)[C@@H](O)C[C@@]21C [Comparative Example 2]	0.84	3.58	8.76										up to 10 μm	up to 5 μm	> 20	~4
CCC(=O)OCC(=O)[C@@]1(OC(=O)CC)[C@@H](C)C[C@H]2[C@@H]3CCC4=CC(=O)C=C[C@]4(C)[C@@]3(Cl)[C@@H](O)C[C@@]21C [anhydrous BDP, anhydrous beclomethasone diproprionate]	0.43	1.10	2.24		0.42	1.07	2.10	formation of BDP hydrate	no significant variation of particle size		considerable weight changes					
